Measured values: US20240025922A1, “TETRAHYDROPYRIDO[3,4-d]PYRIMIDINES AS HPK1 INHIBITORS” (Merck Patent GmbH, priority 2022, published 2024)

Key:
[1] = target: full-length human HPK1 (MAP4K1) (Homo sapiens (Human), UniProt Q92918); assay: HPK1 Kinase Assay (Biochemical Assay), ADP-Glo; settings: GST-HPK1 3.2 nM, 10 μM ATP, MBP substrate, read-out: HPK1 enzymatic IC50
Method in brief: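 GST-tagged full-length human HPK1 was expressed in Sf21 cells and used at 3.2 nM in 50 mM HEPES pH 7.5, 10 mM MgCl2, 2 mM DTT, 12.5 mM O-glycerophosphate, 0.01% BSA and 0.02% Brij-35. It was preincubated 15 min with 10-point compound dilutions, and the reaction was started with a start mix of 10 μM ATP and 3.235 μM MBP. After 120 min, ADP was measured by ADP-Glo luminescence and IC50 derived.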

[2] = target: HPK1 (SLP76 phosphorylation at Ser376 in Jurkat and EL-4 cells) (Homo sapiens, UniProt Q92918); format: cell-based; settings: αCD3/αCD28 Dynabeads stimulated cells, pSLP76 (Ser376) detection; read-out: HPK1 pSLP76 IC50
Method in brief: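 Jurkat (human) and EL-4 (mouse) cells, endogenous HPK1/SLP76, preincubated 60 min with compounds (10-point dilution), then stimulated with αCD3/αCD28 beads at 37 °C: 15 min for Jurkat, 30 min for EL-4. Ser376 pSLP76 in lysates read by AlphaLISA (Jurkat) or HTRF (EL-4); % inhibition and IC50 fitted.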

Sequence of full-length human HPK1 (MAP4K1) (Q92918 whole entry): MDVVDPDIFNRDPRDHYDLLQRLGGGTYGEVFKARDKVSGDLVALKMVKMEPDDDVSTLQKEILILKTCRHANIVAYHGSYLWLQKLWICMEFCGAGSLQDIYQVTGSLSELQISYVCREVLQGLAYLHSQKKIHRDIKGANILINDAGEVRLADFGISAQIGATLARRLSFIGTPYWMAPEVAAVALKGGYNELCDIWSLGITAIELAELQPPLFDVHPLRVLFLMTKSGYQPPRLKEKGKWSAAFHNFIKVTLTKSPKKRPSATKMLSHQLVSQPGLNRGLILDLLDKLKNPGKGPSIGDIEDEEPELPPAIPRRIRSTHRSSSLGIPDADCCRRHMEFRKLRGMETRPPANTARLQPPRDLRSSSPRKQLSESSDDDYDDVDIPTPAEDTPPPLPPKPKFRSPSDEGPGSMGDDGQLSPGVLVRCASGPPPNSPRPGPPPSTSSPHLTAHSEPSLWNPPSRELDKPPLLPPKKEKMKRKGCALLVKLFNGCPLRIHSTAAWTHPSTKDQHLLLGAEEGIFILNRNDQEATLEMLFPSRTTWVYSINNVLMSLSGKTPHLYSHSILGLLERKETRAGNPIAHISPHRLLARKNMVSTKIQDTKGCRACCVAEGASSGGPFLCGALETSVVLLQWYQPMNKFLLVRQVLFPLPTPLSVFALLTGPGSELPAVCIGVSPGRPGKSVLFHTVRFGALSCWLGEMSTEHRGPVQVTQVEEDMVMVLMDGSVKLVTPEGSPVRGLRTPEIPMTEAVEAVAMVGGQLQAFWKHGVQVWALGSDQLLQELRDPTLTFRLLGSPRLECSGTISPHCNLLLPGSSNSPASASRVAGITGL
Sequence of HPK1 (SLP76 phosphorylation at Ser376 in Jurkat and EL-4 cells) (Q92918 whole entry, looked up): as the sequence (Q92918 whole entry) above

| IC50 [1] | IC50 [2] | Compound |
| --- | --- | --- |
| < 100 nM | < 500 nM | Cc1c(N2CCc3cnc(Nc4ccc(Cn5nccn5)cc4)nc3C2)cnc2c1NCCO2 [Example 185, 7-{8-methyl-1H,2H,3H-pyrido[2,3-b][1,4]oxazin-7-yl}-N-{4-[(2H-1,2,3-triazol-2-yl)methyl]phenyl}-5H,6H,7H,8H-pyrido[3,4-d]pyrimidin-2-amine] |
| < 100 nM | 500 to 1000 nM | Cc1c(N2CCc3cnc(Nc4ccc(C(C)(C)S(C)(=O)=O)cc4)nc3C2)cnc2c1NCCO2 [Example 186, N-[4-(2-methanesulfonylpropan-2-yl)phenyl]-7-{8-methyl-1H,2H,3H-pyrido[2,3-b][1,4]oxazin-7-yl}-5H,6H,7H,8H-pyrido[3,4-d]pyrimidin-2-amine] |
| < 100 nM | < 500 nM | Cc1c(N2CCc3cnc(Nc4ccc(Cn5cccn5)cc4)nc3C2)cnc2c1NCCO2 [Example 187, 7-{8-methyl-1H,2H,3H-pyrido[2,3-b][1,4]oxazin-7-yl}-N-{4-[(1H-pyrazol-1-yl)methyl]phenyl}-5H,6H,7H,8H-pyrido[3,4-d]pyrimidin-2-amine] |
| < 100 nM | < 500 nM | Cc1c(N2CCc3cnc(Nc4ccc(CN5CCOC5=O)cc4)nc3C2)cnc2c1NCCO2 [Example 188, 3-({4-[(7-{8-methyl-1H,2H,3H-pyrido[2,3-b][1,4]oxazin-7-yl}-5H,6H,7H,8H-pyrido[3,4-d]pyrimidin-2-yl)amino]phenyl}methyl)-1,3-oxazolidin-2-one] |
| < 100 nM | < 500 nM | Cc1c(N2CCc3cnc(Nc4ccc(CC(=O)N(C)C)cc4)nc3C2)cnc2c1NCCO2 [Example 189, N,N-dimethyl-2-{4-[(7-{8-methyl-1H,2H,3H-pyrido[2,3-b][1,4]oxazin-7-yl}-5H,6H,7H,8H-pyrido[3,4-d]pyrimidin-2-yl)amino]phenyl}acetamide] |
| < 100 nM | < 500 nM | Cc1c(N2CCc3cnc(Nc4ccc(CS(C)(=O)=O)c(F)c4)nc3C2)cnc2c1NCCO2 [Example 190, N-[3-fluoro-4-(methanesulfonylmethyl)phenyl]-7-{8-methyl-1H,2H,3H-pyrido[2,3-b][1,4]oxazin-7-yl}-5H,6H,7H,8H-pyrido[3,4-d]pyrimidin-2-amine] |
| < 100 nM | < 500 nM | Cc1c(N2CCc3cnc(Nc4cccc(Cn5ccnc5)c4)nc3C2)cnc2c1NCCO2 [Example 191, N-{3-[(1H-imidazol-1-yl)methyl]phenyl}-7-{8-methyl-1H,2H,3H-pyrido[2,3-b][1,4]oxazin-7-yl}-5H,6H,7H,8H-pyrido[3,4-d]pyrimidin-2-amine] |
